Measurements from PubChem BioAssay (NCI).
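The compound was tested at five concentrations on cells cultured in 96-well plates, with a 48-hour exposure period. TGI denotes the concentration required for complete inhibition of growth.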

How the values were obtained:
Test in all cases: growth of human tumour cells (NCI), 48 h
[1] = test system: A498 renal
[2] = test system: A549 NSCLC
[3] = test system: ACHN renal
[4] = test system: CAKI-1 renal
[5] = test system: CCRF-CEM leukemia
[6] = test system: COLO 205 colon
[7] = test system: DLD-1 colon
[8] = test system: DMS 114 small cell lung
[9] = test system: DMS 273 small cell lung
[10] = test system: EKVX NSCLC
[11] = test system: HCT-116 colon
[12] = test system: HCT-15 colon
[13] = test system: HL-60(TB) leukemia
[14] = test system: HOP-18 NSCLC
[15] = test system: HOP-92 NSCLC
[16] = test system: HT29 colon
[17] = test system: IGROV1 ovarian
[18] = test system: K-562 leukemia
[19] = test system: KM12 colon
[20] = test system: KM20L2 colon
[21] = test system: LOX IMVI melanoma
[22] = test system: LXFL 529 NSCLC
[23] = test system: M14 melanoma
[24] = test system: M19-MEL melanoma
[25] = test system: MOLT-4 leukemia
[26] = test system: NCI-H226 lung
[27] = test system: NCI-H23 lung
[28] = test system: NCI-H460 lung
[29] = test system: NCI-H522 lung
[30] = test system: OVCAR-3 ovarian
[31] = test system: OVCAR-4 ovarian
[32] = test system: OVCAR-5 ovarian
[33] = test system: OVCAR-8 ovarian
[34] = test system: RPMI-8226 leukemia
[35] = test system: RXF 393 renal
[36] = test system: SF-268 CNS
[37] = test system: SF-295 CNS
[38] = test system: SF-539 CNS
[39] = test system: SK-MEL-28 melanoma
[40] = test system: SK-MEL-5 melanoma
[41] = test system: SK-OV-3 ovarian
[42] = test system: SN12C renal
[43] = test system: SNB-19 CNS
[44] = test system: SNB-75 CNS
[45] = test system: SNB-78 CNS
[46] = test system: SW-620 colon
[47] = test system: TK-10 renal
[48] = test system: U251 CNS
[49] = test system: UACC-257 melanoma
[50] = test system: UACC-62 melanoma
[51] = test system: UO-31 renal
[52] = test system: XF 498 CNS
[53] = test system: 786-0 renal
[54] = test system: HOP-62 NSCLC
[55] = test system: MALME-3M melanoma
[56] = test system: HCC-2998 colon
[57] = test system: SK-MEL-2 melanoma

COC(=O)C1CCC(=O)C(Sc2ccccc2)C1 (configuration not stated)
TGI [1]: > 100 µM
TGI [2]: > 100 µM
TGI [3]: > 100 µM
TGI [4]: > 100 µM
TGI [5]: 80 µM
TGI [6]: > 100 µM
TGI [7]: > 100 µM
TGI [8]: > 100 µM
TGI [9]: > 100 µM
TGI [10]: > 100 µM
TGI [11]: > 100 µM
TGI [12]: > 100 µM
TGI [13]: > 100 µM
TGI [14]: > 100 µM
TGI [15]: > 100 µM
TGI [16]: > 100 µM
TGI [17]: > 100 µM
TGI [18]: > 100 µM
TGI [19]: > 100 µM
TGI [20]: > 100 µM
TGI [21]: > 100 µM
TGI [22]: > 100 µM
TGI [23]: > 100 µM
TGI [24]: > 100 µM
TGI [25]: > 100 µM
TGI [26]: > 100 µM
TGI [27]: > 100 µM
TGI [28]: > 100 µM
TGI [29]: > 100 µM
TGI [30]: > 100 µM
TGI [31]: > 100 µM
TGI [32]: > 100 µM
TGI [33]: > 100 µM
TGI [34]: > 100 µM
TGI [35]: > 100 µM
TGI [36]: > 100 µM
TGI [37]: > 100 µM
TGI [38]: > 100 µM
TGI [39]: > 100 µM
TGI [40]: > 100 µM
TGI [41]: > 100 µM
TGI [42]: > 100 µM
TGI [43]: > 100 µM
TGI [44]: 96.4 µM
TGI [45]: > 100 µM
TGI [46]: > 100 µM
TGI [47]: > 100 µM
TGI [48]: > 100 µM
TGI [49]: > 100 µM
TGI [50]: > 100 µM
TGI [51]: 99 µM
TGI [52]: > 100 µM

COc1cc(/C=C/c2cccnc2)cc(OC)c1OC
TGI [53]: > 100 µM
TGI [1]: > 100 µM
TGI [2]: > 100 µM
TGI [3]: > 100 µM
TGI [4]: > 100 µM
TGI [5]: > 100 µM
TGI [6]: > 100 µM
TGI [7]: > 100 µM
TGI [8]: > 100 µM
TGI [9]: > 100 µM
TGI [10]: > 100 µM
TGI [11]: > 100 µM
TGI [12]: > 100 µM
TGI [13]: > 100 µM
TGI [14]: > 100 µM
TGI [54]: > 100 µM
TGI [15]: > 100 µM
TGI [16]: > 100 µM
TGI [17]: > 100 µM
TGI [18]: > 100 µM
TGI [19]: > 100 µM
TGI [20]: > 100 µM
TGI [21]: > 100 µM
TGI [22]: > 100 µM
TGI [23]: > 100 µM
TGI [24]: > 100 µM
TGI [55]: > 100 µM
TGI [25]: > 100 µM
TGI [26]: > 100 µM
TGI [27]: > 100 µM
TGI [28]: > 100 µM
TGI [29]: > 100 µM
TGI [30]: > 100 µM
TGI [31]: > 100 µM
TGI [32]: > 100 µM
TGI [33]: > 100 µM
TGI [34]: > 100 µM
TGI [35]: > 100 µM
TGI [36]: > 100 µM
TGI [37]: > 100 µM
TGI [38]: > 100 µM
TGI [39]: > 100 µM
TGI [40]: > 100 µM
TGI [42]: > 100 µM
TGI [43]: > 100 µM
TGI [44]: > 100 µM
TGI [45]: > 100 µM
TGI [46]: > 100 µM
TGI [47]: > 100 µM
TGI [48]: > 100 µM
TGI [49]: > 100 µM
TGI [50]: > 100 µM
TGI [51]: > 100 µM
TGI [52]: > 100 µM

CCC(C)NC1=C(NC(C)=O)C(=O)c2ccccc2C1=O (configuration not stated)
TGI [53]: > 7.5 µM
TGI [1]: > 75 µM
TGI [2]: > 75 µM
TGI [3]: > 75 µM
TGI [4]: > 75 µM
TGI [5]: > 75 µM
TGI [6]: > 75 µM
TGI [7]: > 75 µM
TGI [8]: > 75 µM
TGI [9]: > 75 µM
TGI [10]: > 75 µM
TGI [56]: > 75 µM
TGI [11]: > 75 µM
TGI [12]: > 75 µM
TGI [13]: 43.1 µM
TGI [14]: > 75 µM
TGI [54]: > 75 µM
TGI [15]: > 75 µM
TGI [16]: > 75 µM
TGI [17]: > 75 µM
TGI [18]: > 75 µM
TGI [19]: > 75 µM
TGI [20]: > 75 µM
TGI [21]: 40 µM
TGI [22]: > 75 µM
TGI [23]: > 75 µM
TGI [24]: > 75 µM
TGI [55]: > 75 µM
TGI [25]: > 75 µM
TGI [26]: > 75 µM
TGI [27]: > 75 µM
TGI [28]: > 75 µM
TGI [30]: > 75 µM
TGI [31]: > 75 µM
TGI [32]: > 75 µM
TGI [33]: > 75 µM
TGI [34]: 37.9 µM
TGI [35]: > 75 µM
TGI [36]: > 75 µM
TGI [37]: > 75 µM
TGI [38]: > 75 µM
TGI [57]: > 75 µM
TGI [39]: > 75 µM
TGI [40]: > 75 µM
TGI [41]: > 75 µM
TGI [42]: > 75 µM
TGI [43]: > 75 µM
TGI [44]: > 75 µM
TGI [45]: > 75 µM
TGI [46]: > 75 µM
TGI [47]: > 75 µM
TGI [48]: > 75 µM
TGI [49]: > 75 µM
TGI [50]: > 75 µM
TGI [51]: > 75 µM
TGI [52]: > 75 µM
